In patent US20050019260A1, “Animal model for allergy” (priority 2001, published 2005):

System: sheep mammary gland
Experiment: Single intramammary infusion of lipopolysaccharide, MAL cell collection
Type: in vivo

lipopolysaccharide was tested, and the MAL cell influx (24 h after single intramammary infusion) was “predominantly neutrophils” and the MAL cell influx (day 5 after single intramammary infusion) was “macrophage infiltration”.
